Laboratory results as given in ChEMBL document CHEMBL1201862, “PubChem BioAssay data set” (2004).
The source made the active and inactive calls. Rule as the data show it, for most assays here: actives have a measured EC50 and inactives only a lower limit.

What was measured:
[1] = biological target: Lysosomal acid glucosylceramidase (Homo sapiens, UniProt P04062); experiment: Dose response cell-based high throughput screening assay to identify enhancers of beta-glucosidase activity. [Related pubchem assays: 784 ]; format: functional
Lysosomal acid glucosylceramidase, sequence (P04062 whole entry): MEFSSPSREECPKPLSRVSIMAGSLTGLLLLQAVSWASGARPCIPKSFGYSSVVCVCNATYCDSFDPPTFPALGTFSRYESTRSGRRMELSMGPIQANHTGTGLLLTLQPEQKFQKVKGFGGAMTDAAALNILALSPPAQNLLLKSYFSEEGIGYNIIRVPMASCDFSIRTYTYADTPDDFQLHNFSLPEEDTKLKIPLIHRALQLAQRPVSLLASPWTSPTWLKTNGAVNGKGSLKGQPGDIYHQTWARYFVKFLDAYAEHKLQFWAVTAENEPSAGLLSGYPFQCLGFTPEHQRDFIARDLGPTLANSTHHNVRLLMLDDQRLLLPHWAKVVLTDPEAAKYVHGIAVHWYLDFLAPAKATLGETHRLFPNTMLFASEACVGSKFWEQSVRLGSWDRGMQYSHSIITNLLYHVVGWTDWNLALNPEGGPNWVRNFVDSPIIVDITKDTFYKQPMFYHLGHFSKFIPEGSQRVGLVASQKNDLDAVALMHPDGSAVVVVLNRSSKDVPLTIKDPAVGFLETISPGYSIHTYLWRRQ

Staphylococcus aureus = experiment: Inhibitors of Bacterial Quorum Sensing Structure Activity Relationship (SAR) Analysis: Dose Response Assay. [Related pubchem assays: 700, 527 ]; format: functional, organism-based
[2] = biological target: T1, Eukaryotic translation initiation factor 2-alpha kinase 3 (Homo sapiens, UniProt Q9NZJ5); experiment: Dose response cell-based high-throughput screening assay to measure PERK inhibition. [Related pubchem assays: 1416 ]; format: functional
T1 sequence (Q9NZJ5 whole entry): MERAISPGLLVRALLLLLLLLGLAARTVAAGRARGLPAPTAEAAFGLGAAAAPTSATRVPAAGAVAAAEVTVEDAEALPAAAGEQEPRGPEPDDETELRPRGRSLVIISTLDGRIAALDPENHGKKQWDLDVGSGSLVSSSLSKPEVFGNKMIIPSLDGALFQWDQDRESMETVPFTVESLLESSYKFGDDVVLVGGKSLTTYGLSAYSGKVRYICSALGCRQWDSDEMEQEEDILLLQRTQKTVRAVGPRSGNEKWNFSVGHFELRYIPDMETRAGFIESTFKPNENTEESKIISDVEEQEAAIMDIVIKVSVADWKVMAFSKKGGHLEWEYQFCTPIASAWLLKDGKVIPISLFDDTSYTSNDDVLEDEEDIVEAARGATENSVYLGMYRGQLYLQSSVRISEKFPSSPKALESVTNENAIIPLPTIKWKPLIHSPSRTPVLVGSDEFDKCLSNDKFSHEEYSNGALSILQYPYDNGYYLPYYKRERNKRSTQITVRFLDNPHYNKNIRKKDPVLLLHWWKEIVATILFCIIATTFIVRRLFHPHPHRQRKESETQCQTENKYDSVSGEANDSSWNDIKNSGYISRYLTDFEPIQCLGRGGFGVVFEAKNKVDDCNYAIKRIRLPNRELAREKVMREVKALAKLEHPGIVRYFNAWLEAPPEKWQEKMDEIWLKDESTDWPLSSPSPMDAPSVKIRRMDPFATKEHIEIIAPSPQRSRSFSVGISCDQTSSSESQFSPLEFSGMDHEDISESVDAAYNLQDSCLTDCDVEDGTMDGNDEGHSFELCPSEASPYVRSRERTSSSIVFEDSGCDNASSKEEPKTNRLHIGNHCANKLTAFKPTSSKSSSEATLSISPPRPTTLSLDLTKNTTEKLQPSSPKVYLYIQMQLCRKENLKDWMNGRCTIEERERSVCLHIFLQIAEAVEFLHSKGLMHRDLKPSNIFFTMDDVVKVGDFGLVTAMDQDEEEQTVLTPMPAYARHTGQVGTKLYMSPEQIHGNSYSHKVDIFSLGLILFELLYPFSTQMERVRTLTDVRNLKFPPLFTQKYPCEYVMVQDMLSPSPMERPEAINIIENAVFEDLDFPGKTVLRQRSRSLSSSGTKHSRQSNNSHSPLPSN

[3] = biological target: T1, Eukaryotic translation initiation factor 2-alpha kinase 3; experiment: Counterscreen assay for PERK inhibitors: Dose response cell-based high throughput screening assay to measure inhibition of PERK at 6 hours. [Related pubchem assays: 1522, 1416 ]; format: functional
[4] = inhibitors of firefly luciferase expression or activity, dose response, H4 neuroglioma cells, luminescence (AID 1990); format: functional, cell-based
[5] = luciferase reporter signal reduction – luminescence, H4-C neuroglioblastoma cells, dose response (AID 2458); format: functional, cell-based;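 also: H4 neuroglioblastoma cells stably carrying a luciferase reporter gene fusion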
BJ [6] = experiment: cytotoxicity toward BJ-TERT fibroblasts, dose response, cell-based, RAS-independent, luminescence (AID 1933); format: functional; conditions: Homo sapiens
[7] = biological target: T2, Luciferin 4-monooxygenase (Photinus pyralis, UniProt P08659); experiment: Counter Screen for Luciferase-based Assay Positives. [Related pubchem assays: 620, 618, 411 ]
T2 sequence (P08659 whole entry): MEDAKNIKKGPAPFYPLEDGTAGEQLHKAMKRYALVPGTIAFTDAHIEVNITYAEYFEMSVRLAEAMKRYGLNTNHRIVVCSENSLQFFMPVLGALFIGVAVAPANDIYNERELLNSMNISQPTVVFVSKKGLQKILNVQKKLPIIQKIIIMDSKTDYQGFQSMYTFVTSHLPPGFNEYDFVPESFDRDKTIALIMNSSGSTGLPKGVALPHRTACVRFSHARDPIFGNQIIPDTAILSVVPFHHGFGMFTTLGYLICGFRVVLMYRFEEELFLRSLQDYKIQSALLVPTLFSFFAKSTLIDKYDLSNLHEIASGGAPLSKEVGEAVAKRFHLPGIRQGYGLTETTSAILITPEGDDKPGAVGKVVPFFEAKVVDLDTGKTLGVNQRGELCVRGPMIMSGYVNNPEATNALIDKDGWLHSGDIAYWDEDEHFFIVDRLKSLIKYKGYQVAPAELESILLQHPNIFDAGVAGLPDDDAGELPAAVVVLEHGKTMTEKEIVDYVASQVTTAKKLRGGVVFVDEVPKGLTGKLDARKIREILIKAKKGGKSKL

HEK293 [8] = experiment: PMA/Ionomycin induced NF-kB luciferase assay in 293- NF-kB-Luc stable cells. [Related pubchem assays: 1299, 1270, 1295, 1375, 1287, 1281, 1293, 1291, 1289, 1280, 465, 1364, 1282, 1372, 1365, 1370, 1367, 1366, 1269, 1373, 1292, 1290, 1302, 1371, 1283, 1271, 1294, 1374, 1368, 1369 ]; format: functional, cell-based; conditions: Homo sapiens
[9] = biological target: T2, Luciferin 4-monooxygenase; experiment: In vitro luciferase assay using purified luciferase. [Related pubchem assays: 1299, 1270, 1295, 1375, 1287, 1281, 1293, 1291, 1289, 1280, 465, 1364, 1282, 1372, 1365, 1370, 1367, 1366, 1266, 1373, 1292, 1290, 1302, 1371, 1283, 1271, 1294, 1374, 1368, 1369 ]
cells = format: functional, cell-based
[10] = inhibitors of SNCA 5'UTR-driven reporter translation, confirmation, H4 neuroglioma cells, luminescence (AID 1988); format: functional, cell-based
[11] = biological target: T2, Luciferin 4-monooxygenase; experiment: firefly luciferase enzyme inhibitors, dose response, biochemical, luminescence (AID 1891)
[12] = Luminescence Cell-Based Dose Confirmation HTS to Identify Inhibitors of Platelet Dense Granule Release. [Related pubchem assays: 1663 (Primary HTS), 1678 (Summary of Project)]; format: functional
HT-1080 = experiment: cytotoxicity in HT1080 fibrosarcoma cells, cell-based, fluorescence readout (AID 620); format: functional; conditions: Homo sapiens
HEK293 [13] = experiment: Cytotoxicity assay in HEK293 cells. [Related pubchem assays (depositor defined):AID1266, AID1269, AID1270, AID1271, AID1280, AID1281, AID1282, AID1283, AID1287, AID1289, AID1290, AID1291, AID1292, AID1293, AID1294, AID1295, AID1299, AID1302, AID1364, AID1365, AID1366, AID1367, AID1369, AID1370, AID1371, AID1372, AID1373, AID1374, AID1375, AID1384 …; format: functional, cell-based; conditions: Homo sapiens
BJ [14] = experiment: cytotoxicity toward BJ-TERT-LT-ST fibroblasts, dose response, cell-based, RAS-independent, luminescence (AID 1935); format: functional; conditions: Homo sapiens;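 also: BJ fibroblasts immortalized with TERT plus LT and ST oncogenes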
[15] = cytotoxicity toward DRD oncogenic fibroblasts, dose response, cell-based, non-viral oncogenic, luminescence (AID 1934); format: functional; conditions: Homo sapiens
[16] = biological target: Mitogen-activated protein kinase 10 (Homo sapiens, UniProt P53779); experiment: Dose response biochemical screening assay for inhibitors of c-Jun N-Terminal Kinase 3 (JNK3). [Related pubchem assays: 746 ]
Mitogen-activated protein kinase 10, sequence (P53779 whole entry): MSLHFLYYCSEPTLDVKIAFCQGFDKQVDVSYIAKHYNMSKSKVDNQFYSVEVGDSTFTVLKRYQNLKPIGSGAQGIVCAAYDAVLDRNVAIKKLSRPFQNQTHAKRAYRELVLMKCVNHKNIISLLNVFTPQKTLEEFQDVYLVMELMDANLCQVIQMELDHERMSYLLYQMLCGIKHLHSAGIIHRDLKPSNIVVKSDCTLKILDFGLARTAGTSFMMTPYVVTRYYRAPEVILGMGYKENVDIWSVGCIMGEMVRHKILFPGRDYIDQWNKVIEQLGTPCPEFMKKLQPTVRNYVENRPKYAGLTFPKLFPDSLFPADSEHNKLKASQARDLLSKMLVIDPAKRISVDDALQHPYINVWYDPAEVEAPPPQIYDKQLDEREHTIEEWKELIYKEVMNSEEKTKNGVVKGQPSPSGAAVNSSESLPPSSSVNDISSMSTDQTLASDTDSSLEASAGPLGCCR

[17] = inhibitors of SNCA 5'UTR-driven translation, confirmation, luminescence, H4 neuroglioblastoma cells, dose confirmation (AID 2454); format: functional, cell-based;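 also: H4 neuroglioblastoma cells carrying an alpha-synuclein 5'UTR luciferase reporter; potency for inhibition of the luciferase signal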
[18] = cytotoxicity in HEK-293T cells, dose response, cytotoxicity control for TCR NF-kB inhibitor project, luminescence, T-cell screen hits (AID 489026); format: functional, cell-based;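 also: cells exposed to compound about 14 hours before the viability readout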
BJ [19] = experiment: cytotoxicity toward Ras-transformed BJeLR fibroblasts, dose response, cell-based, alamar blue fluorescence, cherrypicked samples (AID 2631); format: functional; conditions: Homo sapiens;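 also: confirmatory dose-response assay in RAS-dependent BJ fibroblasts engineered with TERT, LT and ST, with cytotoxicity read by fluorescence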
Streptococcus = experiment: Luminescence Microorganism-Based Dose Response Follow up to Identify Compounds Cytotoxic to Streptococcus. [Related pubchem assays: 1677 (Project Summary), 1915, 1914, 1902 (Retest at Dose), 1900 (Counter Screen), 1662 (Primary HTS)]; format: functional, organism-based

SMILES: CC1=C(C(=O)Nc2cccnc2)C(c2ccncc2)n2nnnc2N1 (stereo not drawn)
- EC50 [1]: > 50 µM (not active)

SMILES: COc1ccccc1N1CCN(C(CNC(=O)c2cccc(Cl)c2)c2cccnc2)CC1 (stereo not drawn)
- IC50 (Staphylococcus aureus): 0.457 µM (active)

SMILES: Cn1nc(C(F)(F)F)c(-c2ccccc2)c1NC(=O)CCC(=O)O
- EC50 [2]: > 55.7 µM (not active)
- EC50 [3]: > 55.7 µM (not active)

SMILES: CCCN1C=CC(=C2C(=O)c3ccccc3C2=O)C=C1
- EC50 [4]: < 0.195 µM (active)
- EC50 [5]: 0.127 µM (active)
- EC50 (BJ [6]): 6.69 µM (active)
- EC50 [7]: 0.98 µM (active)
- EC50 (HEK293 [8]): 0.774 µM (active)
- EC50 [9]: 1.09 µM (active)
- EC50 (cells): 0.135 µM (active)
- EC50 [10]: < 0.1 µM (active)
- EC50 [11]: 0.719 µM (active)
- EC50 [12]: 7.02 µM (active)
- EC50 (HT-1080): > 50 µM (not active)
- EC50 (HEK293 [13]): 0.589 µM (active)
- EC50 (BJ [14]): 18.2 µM (active)
- EC50 [15]: 6.78 µM (active)
- IC50 [16]: 9.84 µM (active)
- EC50 [17]: 0.139 µM (active)
- IC50 [18]: > 80 µM (inactive)
- EC50 (BJ [19]): > 133 µM (inactive)

SMILES: O=C(CSc1ccncc1)N1c2ccccc2Sc2ccccc21
- EC50 (Streptococcus): > 500 µM (not active)
